Measurements reported in PubChem BioAssay (NCI).
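Following 48 hours of exposure in 96-well plates, responses at five concentrations were used to interpolate endpoints linearly. TGI: total growth inhibition.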

Assays:
Assay in all cases: inhibition of tumour cell growth, NCI panel, 48 h
[1] = tested on: 786-0 renal
[2] = tested on: A498 renal
[3] = tested on: A549 NSCLC
[4] = tested on: ACHN renal
[5] = tested on: CCRF-CEM leukemia
[6] = tested on: COLO 205 colon
[7] = tested on: DLD-1 colon
[8] = tested on: DMS 273 small cell lung
[9] = tested on: EKVX NSCLC
[10] = tested on: HCC-2998 colon
[11] = tested on: HCT-116 colon
[12] = tested on: HCT-15 colon
[13] = tested on: HL-60(TB) leukemia
[14] = tested on: HOP-18 NSCLC
[15] = tested on: HOP-62 NSCLC
[16] = tested on: HOP-92 NSCLC
[17] = tested on: HT29 colon
[18] = tested on: IGROV1 ovarian
[19] = tested on: K-562 leukemia
[20] = tested on: KM12 colon
[21] = tested on: KM20L2 colon
[22] = tested on: LOX IMVI melanoma
[23] = tested on: LXFL 529 NSCLC
[24] = tested on: M14 melanoma
[25] = tested on: M19-MEL melanoma
[26] = tested on: MALME-3M melanoma
[27] = tested on: MOLT-4 leukemia
[28] = tested on: NCI-H226 lung
[29] = tested on: NCI-H23 lung
[30] = tested on: NCI-H460 lung
[31] = tested on: NCI-H522 lung
[32] = tested on: OVCAR-3 ovarian
[33] = tested on: OVCAR-4 ovarian
[34] = tested on: OVCAR-5 ovarian
[35] = tested on: OVCAR-8 ovarian
[36] = tested on: RXF 393 renal
[37] = tested on: RXF-631 renal
[38] = tested on: SF-268 CNS
[39] = tested on: SF-295 CNS
[40] = tested on: SF-539 CNS
[41] = tested on: SK-MEL-2 melanoma
[42] = tested on: SK-MEL-28 melanoma
[43] = tested on: SK-MEL-5 melanoma
[44] = tested on: SK-OV-3 ovarian
[45] = tested on: SN12C renal
[46] = tested on: SNB-19 CNS
[47] = tested on: SNB-75 CNS
[48] = tested on: SNB-78 CNS
[49] = tested on: SR leukemia
[50] = tested on: SW-620 colon
[51] = tested on: TK-10 renal
[52] = tested on: U251 CNS
[53] = tested on: UACC-257 melanoma
[54] = tested on: UO-31 renal
[55] = tested on: XF 498 CNS
[56] = tested on: DMS 114 small cell lung
[57] = tested on: RPMI-8226 leukemia
[58] = tested on: UACC-62 melanoma
[59] = tested on: CAKI-1 renal

CC(=O)C1=CCC2c3[nH]c4ccccc4c3CCN2C1 (stereo unspecified)
TGI [1]: > 100 µM | TGI [2]: > 100 µM | TGI [3]: > 100 µM | TGI [4]: > 100 µM | TGI [5]: > 100 µM | TGI [6]: > 100 µM | TGI [7]: > 100 µM | TGI [8]: > 100 µM | TGI [9]: > 100 µM | TGI [10]: > 100 µM | TGI [11]: > 100 µM | TGI [12]: > 100 µM | TGI [13]: > 100 µM | TGI [14]: > 100 µM | TGI [15]: > 100 µM | TGI [16]: > 100 µM | TGI [17]: > 100 µM | TGI [18]: > 100 µM | TGI [19]: 91.3 µM | TGI [20]: > 100 µM | TGI [21]: 46.2 µM | TGI [22]: > 100 µM | TGI [23]: > 100 µM | TGI [24]: > 100 µM | TGI [25]: > 100 µM | TGI [26]: > 100 µM | TGI [27]: > 100 µM | TGI [28]: > 100 µM | TGI [29]: > 100 µM | TGI [30]: > 100 µM | TGI [31]: 65.6 µM | TGI [32]: > 100 µM | TGI [33]: > 100 µM | TGI [34]: > 100 µM | TGI [35]: > 100 µM | TGI [36]: > 100 µM | TGI [37]: > 100 µM | TGI [38]: > 100 µM | TGI [39]: > 100 µM | TGI [40]: > 100 µM | TGI [41]: > 100 µM | TGI [42]: > 100 µM | TGI [43]: > 100 µM | TGI [44]: 75.6 µM | TGI [45]: > 100 µM | TGI [46]: > 100 µM | TGI [47]: 88.3 µM | TGI [48]: > 100 µM | TGI [49]: > 100 µM | TGI [50]: > 100 µM | TGI [51]: > 100 µM | TGI [52]: > 100 µM | TGI [53]: > 100 µM | TGI [54]: > 100 µM | TGI [55]: > 100 µM

Cc1ccc(S(=O)(=O)c2c(N)n(CCN(C)C)c3nc4ccccc4nc23)cc1
TGI [1]: > 100 µM | TGI [3]: > 100 µM | TGI [4]: > 100 µM | TGI [5]: > 100 µM | TGI [6]: > 100 µM | TGI [7]: > 100 µM | TGI [56]: > 100 µM | TGI [8]: > 100 µM | TGI [9]: > 100 µM | TGI [10]: > 100 µM | TGI [11]: > 100 µM | TGI [12]: > 100 µM | TGI [13]: > 100 µM | TGI [14]: > 100 µM | TGI [16]: > 100 µM | TGI [17]: > 100 µM | TGI [18]: > 100 µM | TGI [19]: > 100 µM | TGI [20]: > 100 µM | TGI [23]: > 100 µM | TGI [24]: > 100 µM | TGI [25]: > 100 µM | TGI [26]: > 100 µM | TGI [27]: > 100 µM | TGI [28]: > 100 µM | TGI [29]: > 100 µM | TGI [30]: > 100 µM | TGI [31]: 58.7 µM | TGI [32]: > 100 µM | TGI [33]: > 100 µM | TGI [34]: > 100 µM | TGI [35]: > 100 µM | TGI [57]: > 100 µM | TGI [38]: > 100 µM | TGI [39]: > 100 µM | TGI [40]: > 100 µM | TGI [41]: > 100 µM | TGI [42]: > 100 µM | TGI [43]: > 100 µM | TGI [44]: > 100 µM | TGI [45]: > 100 µM | TGI [46]: > 100 µM | TGI [47]: > 100 µM | TGI [48]: > 100 µM | TGI [51]: > 100 µM | TGI [52]: > 100 µM | TGI [53]: > 100 µM | TGI [54]: > 100 µM | TGI [55]: > 100 µM

Cc1cc2c(C)n(Cc3ccc(Cl)cc3Cl)nc2c(C(=O)O)c1C
TGI [1]: > 100 µM | TGI [3]: > 100 µM | TGI [4]: > 100 µM | TGI [5]: > 100 µM | TGI [6]: > 100 µM | TGI [7]: > 100 µM | TGI [8]: > 100 µM | TGI [9]: > 100 µM | TGI [10]: > 100 µM | TGI [11]: > 100 µM | TGI [12]: > 100 µM | TGI [13]: > 100 µM | TGI [14]: > 100 µM | TGI [15]: > 100 µM | TGI [16]: > 100 µM | TGI [17]: > 100 µM | TGI [18]: > 100 µM | TGI [21]: > 100 µM | TGI [22]: > 100 µM | TGI [23]: > 100 µM | TGI [25]: > 100 µM | TGI [26]: > 100 µM | TGI [27]: > 100 µM | TGI [28]: > 100 µM | TGI [29]: > 100 µM | TGI [30]: > 100 µM | TGI [32]: > 100 µM | TGI [34]: > 100 µM | TGI [35]: > 100 µM | TGI [57]: > 100 µM | TGI [36]: > 100 µM | TGI [37]: > 100 µM | TGI [38]: > 100 µM | TGI [39]: > 100 µM | TGI [40]: > 100 µM | TGI [41]: > 100 µM | TGI [42]: > 100 µM | TGI [44]: > 100 µM | TGI [45]: > 100 µM | TGI [46]: > 100 µM | TGI [47]: > 100 µM | TGI [48]: > 100 µM | TGI [50]: > 100 µM | TGI [51]: > 100 µM | TGI [52]: > 100 µM | TGI [53]: > 100 µM | TGI [58]: > 100 µM | TGI [54]: > 100 µM | TGI [55]: > 100 µM

CC(CCCOC(c1ccccc1)(c1ccccc1)c1ccccc1)OC(=O)Nc1ccccc1 (stereo unspecified)
TGI [1]: 29.9 µM | TGI [3]: 23.2 µM | TGI [4]: 26.5 µM | TGI [59]: 26.8 µM | TGI [5]: 33.1 µM | TGI [6]: 32.3 µM | TGI [7]: 27.1 µM | TGI [56]: 24.5 µM | TGI [8]: 29.3 µM | TGI [10]: 27.3 µM | TGI [11]: 23 µM | TGI [12]: 27.9 µM | TGI [13]: 31.4 µM | TGI [15]: 28.1 µM | TGI [16]: 21.7 µM | TGI [17]: 25.8 µM | TGI [18]: 30 µM | TGI [19]: 32.4 µM | TGI [20]: 27.1 µM | TGI [21]: 19.8 µM | TGI [22]: 25.3 µM | TGI [23]: 26 µM | TGI [24]: 27.2 µM | TGI [25]: 28.3 µM | TGI [26]: 29.6 µM | TGI [27]: 24 µM | TGI [28]: 25.6 µM | TGI [29]: 21.7 µM | TGI [30]: 24.8 µM | TGI [31]: 23.9 µM | TGI [32]: 26.9 µM | TGI [33]: 25 µM | TGI [34]: 26.8 µM | TGI [35]: 27.1 µM | TGI [57]: 42.1 µM | TGI [36]: 26.5 µM | TGI [38]: 25.9 µM | TGI [39]: 25.3 µM | TGI [40]: 31.7 µM | TGI [42]: 28.7 µM | TGI [43]: 27.1 µM | TGI [44]: 27.2 µM | TGI [45]: 24.4 µM | TGI [47]: 27.9 µM | TGI [48]: 31.9 µM | TGI [49]: 44.7 µM | TGI [50]: 27.4 µM | TGI [51]: 34.7 µM | TGI [52]: 26.8 µM | TGI [53]: 28.8 µM | TGI [58]: 25.5 µM | TGI [54]: 23.7 µM | TGI [55]: 28.1 µM
